Series [1] deals with T1, two-pore channel 2 (TPC2) (Homo sapiens, UniProt Q8NHX9, L11A/L12A).
T1 construct: gene TPCN2; human TPC2, C-terminally RFP-tagged, rerouted to the plasma membrane (hTPC2L11A/L12A)
The series is described as follows: fluo-4 Ca2+ FLIPR assay in HEK293 cells stably expressing hTPC2, stimulated with TPC2-A1-P or TPC2-A1-N. Format: cell-based.

The target of series [2] is T2, P-glycoprotein (P-gp) (Homo sapiens, UniProt P08183).
T2 construct: gene ABCB1; P-glycoprotein overexpressing VCR-R CEM cells
The series is described as follows: calcein-AM retention by flow cytometry in VCR-R CEM cells at […]. Format: cell-based.

T1 sequence (Q8NHX9 whole entry L11A/L12A): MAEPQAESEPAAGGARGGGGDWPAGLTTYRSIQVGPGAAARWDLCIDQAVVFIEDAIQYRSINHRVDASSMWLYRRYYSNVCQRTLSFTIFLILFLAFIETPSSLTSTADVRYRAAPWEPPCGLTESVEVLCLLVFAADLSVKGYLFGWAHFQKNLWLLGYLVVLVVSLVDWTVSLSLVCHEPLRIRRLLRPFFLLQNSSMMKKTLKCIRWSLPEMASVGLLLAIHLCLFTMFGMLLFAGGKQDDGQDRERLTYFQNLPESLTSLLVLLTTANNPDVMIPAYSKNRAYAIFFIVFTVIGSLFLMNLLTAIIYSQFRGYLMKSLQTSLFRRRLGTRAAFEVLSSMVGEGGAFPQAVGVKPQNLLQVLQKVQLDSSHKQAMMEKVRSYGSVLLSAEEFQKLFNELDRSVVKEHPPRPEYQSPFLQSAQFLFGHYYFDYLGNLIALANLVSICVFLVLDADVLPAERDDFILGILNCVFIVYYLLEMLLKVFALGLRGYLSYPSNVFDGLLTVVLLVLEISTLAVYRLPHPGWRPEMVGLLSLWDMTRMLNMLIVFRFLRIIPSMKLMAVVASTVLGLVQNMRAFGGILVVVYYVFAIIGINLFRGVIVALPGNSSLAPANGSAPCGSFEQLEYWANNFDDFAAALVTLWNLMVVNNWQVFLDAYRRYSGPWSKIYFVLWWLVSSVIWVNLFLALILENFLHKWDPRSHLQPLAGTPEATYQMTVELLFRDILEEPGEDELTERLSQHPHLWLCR
T2 sequence (P08183 whole entry): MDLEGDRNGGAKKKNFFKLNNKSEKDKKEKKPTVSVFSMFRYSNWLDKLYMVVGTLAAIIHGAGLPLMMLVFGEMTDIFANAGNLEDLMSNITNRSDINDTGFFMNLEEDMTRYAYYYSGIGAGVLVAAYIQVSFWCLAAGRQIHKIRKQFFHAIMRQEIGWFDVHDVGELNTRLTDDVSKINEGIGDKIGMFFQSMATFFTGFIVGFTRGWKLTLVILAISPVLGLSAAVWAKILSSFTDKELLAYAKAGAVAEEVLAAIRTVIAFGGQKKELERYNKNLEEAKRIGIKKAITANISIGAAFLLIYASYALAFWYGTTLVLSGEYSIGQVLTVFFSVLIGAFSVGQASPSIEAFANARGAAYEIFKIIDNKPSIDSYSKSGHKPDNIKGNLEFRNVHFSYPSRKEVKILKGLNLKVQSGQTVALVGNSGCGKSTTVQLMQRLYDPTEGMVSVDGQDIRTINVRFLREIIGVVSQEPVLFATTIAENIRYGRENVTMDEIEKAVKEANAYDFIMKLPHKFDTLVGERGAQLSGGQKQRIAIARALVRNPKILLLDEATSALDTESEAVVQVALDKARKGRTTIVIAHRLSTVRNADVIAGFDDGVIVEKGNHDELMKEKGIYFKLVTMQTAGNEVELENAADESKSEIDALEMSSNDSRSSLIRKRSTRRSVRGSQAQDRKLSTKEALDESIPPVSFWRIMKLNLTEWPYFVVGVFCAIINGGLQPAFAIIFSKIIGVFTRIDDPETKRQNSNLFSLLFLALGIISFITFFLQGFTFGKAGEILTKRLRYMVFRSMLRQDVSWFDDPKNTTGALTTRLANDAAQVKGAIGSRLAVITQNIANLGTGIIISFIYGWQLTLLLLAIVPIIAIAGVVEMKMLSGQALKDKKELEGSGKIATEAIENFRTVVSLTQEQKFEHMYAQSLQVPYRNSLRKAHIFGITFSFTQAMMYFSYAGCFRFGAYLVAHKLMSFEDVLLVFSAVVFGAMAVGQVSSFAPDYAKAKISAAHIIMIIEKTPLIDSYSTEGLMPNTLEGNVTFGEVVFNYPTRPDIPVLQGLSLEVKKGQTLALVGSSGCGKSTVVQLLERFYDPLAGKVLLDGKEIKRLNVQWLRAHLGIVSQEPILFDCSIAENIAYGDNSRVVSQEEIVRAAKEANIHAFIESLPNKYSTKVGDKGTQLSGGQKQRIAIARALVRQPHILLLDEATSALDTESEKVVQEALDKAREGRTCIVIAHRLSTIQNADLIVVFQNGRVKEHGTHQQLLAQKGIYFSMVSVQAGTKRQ

Take `COc1ccc2cc1Oc1ccc(cc1)C[C@H]1c3c(cc4c(c3Oc3cc5c(cc3OC)CCN(C)[C@@H]5C2)OCO4)CCN1C` [cepharanthine]: the IC50 in series [1] was 3.6/57 µM.

On to `COc1ccc2cc1Oc1ccc(cc1)C[C@H]1c3cc(c(OC)cc3CCN1C)Oc1c(OC)c(OC)cc3c1[C@H](C2)N(C)CC3` [tetrandrine], for which, in series [1], the IC50 is on record as 31/21 µM. The “calcein-AM retention by flow cytometry in VCR-R CEM cells at 10 μM” value in series [2] was “indicating no P-glycoprotein inhibition. Tetrandrine served as positive control (Figure 5C)”.

The values are drawn from PMC8576818, “The ethoxycarbonyl group as both activating and protective group in N-acyl-Pictet–Spengler reactions using methoxystyrenes. A short approach to racemic 1-benzyltetrahydroisoquinoline alkaloids” (Beilstein Journal of Organic Chemistry, 2021).
